Assays:
[1] = molecular target: Interleukin-1 receptor-associated kinase 4 (Homo sapiens) (UniProt Q9NWZ3); assay: Inhibition of human IRAK4 assessed as enzyme activity at 1 uM relative to control; set-up: scale not given: the % may be the effect or the level left
[2] = molecular target: Serine/threonine-protein kinase B-raf (Homo sapiens) (UniProt P15056); assay: Inhibition of B-Raf (unknown origin) at 1 uM
[3] = molecular target: Protein kinase C iota type (Homo sapiens) (UniProt P41743); assay: Inhibition of human PKCiota assessed as enzyme activity at 1 uM relative to control; set-up: scale not given: the % may be the effect or the level left
[4] = molecular target: LIM domain kinase 1 (Homo sapiens) (UniProt P53667); assay: Inhibition of human LIMK1 assessed as enzyme activity at 1 uM relative to control; set-up: scale not given: the % may be the effect or the level left
Sequence of LIM domain kinase 1 (Homo sapiens) (P53667 whole entry, looked up, the tested form may be a part): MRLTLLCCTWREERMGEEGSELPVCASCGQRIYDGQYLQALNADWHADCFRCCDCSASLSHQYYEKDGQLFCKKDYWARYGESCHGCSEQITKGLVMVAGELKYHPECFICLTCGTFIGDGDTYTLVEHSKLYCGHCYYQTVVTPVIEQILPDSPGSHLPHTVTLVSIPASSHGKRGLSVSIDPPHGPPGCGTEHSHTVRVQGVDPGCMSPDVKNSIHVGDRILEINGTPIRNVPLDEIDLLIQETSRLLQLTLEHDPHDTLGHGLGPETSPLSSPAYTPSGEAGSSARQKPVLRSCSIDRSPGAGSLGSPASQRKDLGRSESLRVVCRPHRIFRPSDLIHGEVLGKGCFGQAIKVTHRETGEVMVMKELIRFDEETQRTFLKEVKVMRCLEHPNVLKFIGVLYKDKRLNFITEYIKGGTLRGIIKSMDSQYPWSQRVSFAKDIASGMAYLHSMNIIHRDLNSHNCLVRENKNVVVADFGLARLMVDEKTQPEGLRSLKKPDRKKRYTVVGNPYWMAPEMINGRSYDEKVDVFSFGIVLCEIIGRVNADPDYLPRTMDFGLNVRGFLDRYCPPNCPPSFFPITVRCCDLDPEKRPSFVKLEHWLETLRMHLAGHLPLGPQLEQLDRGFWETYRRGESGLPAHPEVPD

[5] = molecular target: Myotonin-protein kinase (Homo sapiens) (UniProt Q09013); assay: Inhibition of human DMPK assessed as enzyme activity at 1 uM relative to control; set-up: scale not given: the % may be the effect or the level left
[6] = molecular target: Mitogen-activated protein kinase 8 (Homo sapiens) (UniProt P45983); assay: Inhibition of human JNK1alpha1 assessed as enzyme activity at 1 uM relative to control; set-up: scale not given: the % may be the effect or the level left
[7] = molecular target: Mitogen-activated protein kinase 12 (Homo sapiens) (UniProt P53778); assay: Inhibition of human p38gamma assessed as enzyme activity at 1 uM relative to control; set-up: scale not given: the % may be the effect or the level left
[8] = molecular target: Ephrin type-B receptor 3 (Homo sapiens) (UniProt P54753); assay: Inhibition of human EphB3 assessed as enzyme activity at 1 uM relative to control; set-up: scale not given: the % may be the effect or the level left
Sequence of Ephrin type-B receptor 3 (Homo sapiens) (P54753 whole entry): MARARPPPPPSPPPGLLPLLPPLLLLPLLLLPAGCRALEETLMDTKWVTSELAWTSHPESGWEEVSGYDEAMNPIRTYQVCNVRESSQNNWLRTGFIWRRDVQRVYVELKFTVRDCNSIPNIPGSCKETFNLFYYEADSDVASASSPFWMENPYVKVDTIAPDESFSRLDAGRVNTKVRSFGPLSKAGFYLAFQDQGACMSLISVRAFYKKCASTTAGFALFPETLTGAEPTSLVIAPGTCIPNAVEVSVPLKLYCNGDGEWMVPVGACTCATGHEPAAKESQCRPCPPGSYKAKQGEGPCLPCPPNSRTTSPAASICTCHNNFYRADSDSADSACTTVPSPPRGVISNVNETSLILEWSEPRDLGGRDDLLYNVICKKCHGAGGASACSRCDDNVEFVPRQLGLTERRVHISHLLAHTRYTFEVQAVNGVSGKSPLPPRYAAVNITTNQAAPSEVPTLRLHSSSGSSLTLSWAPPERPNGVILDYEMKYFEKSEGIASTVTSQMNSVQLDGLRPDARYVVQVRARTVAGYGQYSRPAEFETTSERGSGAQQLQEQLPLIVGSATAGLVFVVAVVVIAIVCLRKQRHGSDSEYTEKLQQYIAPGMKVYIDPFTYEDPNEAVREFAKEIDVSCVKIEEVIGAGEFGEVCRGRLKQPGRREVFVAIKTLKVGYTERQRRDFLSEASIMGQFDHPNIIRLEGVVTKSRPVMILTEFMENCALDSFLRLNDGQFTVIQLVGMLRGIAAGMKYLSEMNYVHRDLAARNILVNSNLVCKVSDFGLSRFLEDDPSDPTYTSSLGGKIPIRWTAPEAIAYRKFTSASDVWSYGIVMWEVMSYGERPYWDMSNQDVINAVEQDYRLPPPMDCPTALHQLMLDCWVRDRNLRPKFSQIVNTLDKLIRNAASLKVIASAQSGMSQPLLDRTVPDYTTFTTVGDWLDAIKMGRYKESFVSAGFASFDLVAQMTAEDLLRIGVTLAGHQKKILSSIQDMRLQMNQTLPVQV

[9] = molecular target: Death-associated protein kinase 2 (Homo sapiens) (UniProt Q9UIK4); assay: Inhibition of human DAPK2 assessed as enzyme activity at 1 uM relative to control; set-up: scale not given: the % may be the effect or the level left
[10] = molecular target: PAS domain-containing serine/threonine-protein kinase (Homo sapiens) (UniProt Q96RG2); assay: Inhibition of human PASK assessed as enzyme activity at 1 uM relative to control; set-up: scale not given: the % may be the effect or the level left
[11] = molecular target: Dual specificity mitogen-activated protein kinase kinase 6 (Homo sapiens) (UniProt P52564); assay: Inhibition of human MKK6 assessed as enzyme activity at 1 uM relative to control; set-up: scale not given: the % may be the effect or the level left
Sequence of Dual specificity mitogen-activated protein kinase kinase 6 (Homo sapiens) (P52564 whole entry): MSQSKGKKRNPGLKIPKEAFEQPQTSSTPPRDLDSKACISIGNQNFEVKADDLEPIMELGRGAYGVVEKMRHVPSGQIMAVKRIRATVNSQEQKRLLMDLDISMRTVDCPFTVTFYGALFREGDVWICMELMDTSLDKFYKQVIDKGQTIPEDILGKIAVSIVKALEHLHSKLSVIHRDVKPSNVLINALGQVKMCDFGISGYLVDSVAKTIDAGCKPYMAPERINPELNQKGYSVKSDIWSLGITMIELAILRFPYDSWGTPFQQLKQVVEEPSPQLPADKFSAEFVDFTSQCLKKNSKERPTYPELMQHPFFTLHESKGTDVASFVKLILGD

[12] = molecular target: Fibroblast growth factor receptor 1 (Homo sapiens) (UniProt P11362); assay: Inhibition of human FGFR1 assessed as enzyme activity at 1 uM relative to control; set-up: scale not given: the % may be the effect or the level left
[13] = molecular target: Rho-associated protein kinase 1 (Homo sapiens) (UniProt Q13464); assay: Inhibition of human ROCK-1 assessed as enzyme activity at 1 uM relative to control; set-up: scale not given: the % may be the effect or the level left
[14] = molecular target: CDK6/cyclin D3 (Homo sapiens) (UniProt P30281+Q00534); assay: Inhibition of human CDK6/cyclinD3 assessed as enzyme activity at 1 uM relative to control; assay type: protein-complex assay; set-up: scale not given: the % may be the effect or the level left
[15] = molecular target: RAF proto-oncogene serine/threonine-protein kinase (Homo sapiens) (UniProt P04049); assay: Inhibition of human c-RAF assessed as enzyme activity at 1 uM relative to control; set-up: scale not given: the % may be the effect or the level left
[16] = molecular target: Tyrosine-protein kinase Blk (Homo sapiens) (UniProt P51451); assay: Inhibition of human BLK assessed as enzyme activity at 1 uM relative to control; set-up: scale not given: the % may be the effect or the level left
[17] = molecular target: Calcium/calmodulin-dependent protein kinase type 1 (Homo sapiens) (UniProt Q14012); assay: Inhibition of human CAMK1 assessed as enzyme activity at 1 uM relative to control; set-up: scale not given: the % may be the effect or the level left
Sequence of Calcium/calmodulin-dependent protein kinase type 1 (Homo sapiens) (Q14012 whole entry, looked up): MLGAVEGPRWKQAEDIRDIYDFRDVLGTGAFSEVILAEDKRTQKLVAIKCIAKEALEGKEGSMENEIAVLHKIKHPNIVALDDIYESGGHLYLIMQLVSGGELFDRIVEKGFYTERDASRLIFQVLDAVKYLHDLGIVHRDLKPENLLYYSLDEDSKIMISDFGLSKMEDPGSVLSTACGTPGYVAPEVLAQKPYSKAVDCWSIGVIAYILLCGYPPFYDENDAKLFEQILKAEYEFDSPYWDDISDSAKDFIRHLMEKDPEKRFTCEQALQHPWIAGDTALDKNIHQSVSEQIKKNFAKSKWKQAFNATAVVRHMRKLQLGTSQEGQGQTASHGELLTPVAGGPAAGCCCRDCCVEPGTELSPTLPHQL

[18] = molecular target: cGMP-dependent protein kinase 1 (Homo sapiens) (UniProt Q13976); assay: Inhibition of human PRKG1alpha assessed as enzyme activity at 1 uM relative to control; set-up: scale not given: the % may be the effect or the level left
Sequence of cGMP-dependent protein kinase 1 (Homo sapiens) (Q13976 whole entry): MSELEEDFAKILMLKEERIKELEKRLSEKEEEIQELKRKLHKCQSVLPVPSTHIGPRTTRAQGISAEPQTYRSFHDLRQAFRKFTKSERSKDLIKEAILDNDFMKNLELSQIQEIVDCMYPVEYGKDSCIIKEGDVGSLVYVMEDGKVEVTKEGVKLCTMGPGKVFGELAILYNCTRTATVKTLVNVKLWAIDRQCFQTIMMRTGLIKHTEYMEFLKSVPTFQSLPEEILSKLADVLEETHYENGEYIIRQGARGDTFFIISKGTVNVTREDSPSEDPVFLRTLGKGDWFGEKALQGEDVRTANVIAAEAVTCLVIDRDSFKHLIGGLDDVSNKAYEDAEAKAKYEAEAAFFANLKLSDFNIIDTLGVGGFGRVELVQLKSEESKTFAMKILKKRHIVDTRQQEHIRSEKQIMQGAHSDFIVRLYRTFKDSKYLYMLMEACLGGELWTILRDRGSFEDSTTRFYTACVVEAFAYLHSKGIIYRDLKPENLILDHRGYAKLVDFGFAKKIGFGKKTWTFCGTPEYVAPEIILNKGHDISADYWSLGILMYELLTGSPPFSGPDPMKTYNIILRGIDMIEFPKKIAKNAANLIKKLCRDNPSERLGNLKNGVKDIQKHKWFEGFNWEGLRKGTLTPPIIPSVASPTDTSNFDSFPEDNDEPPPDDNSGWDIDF

[19] = molecular target: Receptor-type tyrosine-protein kinase FLT3 (Homo sapiens) (UniProt P36888); assay: Inhibition of human Flt3 assessed as enzyme activity at 1 uM relative to control; set-up: scale not given: the % may be the effect or the level left
[20] = molecular target: Serine/threonine-protein kinase PAK 6 (Homo sapiens) (UniProt Q9NQU5); assay: Inhibition of human PAK6 assessed as enzyme activity at 1 uM relative to control; set-up: scale not given: the % may be the effect or the level left
Sequence of Serine/threonine-protein kinase PAK 6 (Homo sapiens) (Q9NQU5 whole entry, looked up): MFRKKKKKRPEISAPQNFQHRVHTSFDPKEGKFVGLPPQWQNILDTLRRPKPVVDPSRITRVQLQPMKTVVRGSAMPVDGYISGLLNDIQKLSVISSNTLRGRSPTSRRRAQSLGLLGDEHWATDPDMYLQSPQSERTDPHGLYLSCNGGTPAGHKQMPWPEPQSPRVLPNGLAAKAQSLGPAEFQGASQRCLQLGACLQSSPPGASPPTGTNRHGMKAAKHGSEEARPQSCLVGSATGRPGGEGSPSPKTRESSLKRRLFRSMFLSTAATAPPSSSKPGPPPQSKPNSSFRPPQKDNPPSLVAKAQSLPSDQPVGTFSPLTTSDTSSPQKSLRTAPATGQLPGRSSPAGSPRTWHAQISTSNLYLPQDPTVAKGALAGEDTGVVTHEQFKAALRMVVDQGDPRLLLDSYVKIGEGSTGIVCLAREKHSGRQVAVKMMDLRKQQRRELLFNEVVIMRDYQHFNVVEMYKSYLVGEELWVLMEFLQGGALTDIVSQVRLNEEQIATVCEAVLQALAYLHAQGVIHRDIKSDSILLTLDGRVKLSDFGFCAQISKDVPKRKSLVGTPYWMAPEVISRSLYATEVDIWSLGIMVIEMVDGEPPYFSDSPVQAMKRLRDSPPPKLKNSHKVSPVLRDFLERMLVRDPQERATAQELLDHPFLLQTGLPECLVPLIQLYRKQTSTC

[21] = molecular target: Serine/threonine-protein kinase MARK1 (Homo sapiens) (UniProt Q9P0L2); assay: Inhibition of human MARK1 assessed as enzyme activity at 1 uM relative to control; set-up: scale not given: the % may be the effect or the level left
[22] = molecular target: Dual specificity mitogen-activated protein kinase kinase 1 (Homo sapiens) (UniProt Q02750); assay: Inhibition of human MEK1 assessed as enzyme activity at 1 uM relative to control; set-up: scale not given: the % may be the effect or the level left
[23] = molecular target: ALK tyrosine kinase receptor (Homo sapiens) (UniProt Q9UM73); assay: Inhibition of human ALK assessed as enzyme activity at 1 uM relative to control; set-up: scale not given: the % may be the effect or the level left
[24] = molecular target: Serine/threonine-protein kinase MRCK beta (Homo sapiens) (UniProt Q9Y5S2); assay: Inhibition of human MRCKbeta assessed as enzyme activity at 1 uM relative to control; set-up: scale not given: the % may be the effect or the level left
[25] = molecular target: Ephrin type-A receptor 4 (Homo sapiens) (UniProt P54764); assay: Inhibition of human EphA4 assessed as enzyme activity at 1 uM relative to control; set-up: scale not given: the % may be the effect or the level left
[26] = molecular target: Serine/threonine-protein kinase 17A (Homo sapiens) (UniProt Q9UEE5); assay: Inhibition of human DRAK1 assessed as enzyme activity at 1 uM relative to control; set-up: scale not given: the % may be the effect or the level left
[27] = molecular target: Tyrosine-protein kinase JAK3 (Homo sapiens) (UniProt P52333); assay: Inhibition of human JAK3 assessed as enzyme activity at 1 uM relative to control; set-up: scale not given: the % may be the effect or the level left
[28] = molecular target: Discoidin domain-containing receptor 2 (Homo sapiens) (UniProt Q16832); assay: Inhibition of human DDR2 assessed as enzyme activity at 1 uM relative to control; set-up: scale not given: the % may be the effect or the level left
[29] = molecular target: SRSF protein kinase 3 (Homo sapiens) (UniProt Q9UPE1); assay: Inhibition of human MSSK1 assessed as enzyme activity at 1 uM relative to control; set-up: scale not given: the % may be the effect or the level left
[30] = molecular target: Tyrosine-protein kinase BTK (Homo sapiens) (UniProt Q06187); assay: Inhibition of human BTK assessed as enzyme activity at 1 uM relative to control; set-up: scale not given: the % may be the effect or the level left
[31] = molecular target: Ribosomal protein S6 kinase beta-1 (Homo sapiens) (UniProt P23443); assay: Inhibition of human p70S6K assessed as enzyme activity at 1 uM relative to control; set-up: scale not given: the % may be the effect or the level left
[32] = molecular target: Misshapen-like kinase 1 (Homo sapiens) (UniProt Q8N4C8); assay: Inhibition of human MINK assessed as enzyme activity at 1 uM relative to control; set-up: scale not given: the % may be the effect or the level left
[33] = molecular target: High affinity nerve growth factor receptor (Homo sapiens) (UniProt P04629); assay: Inhibition of human TrkA assessed as enzyme activity at 1 uM relative to control; set-up: scale not given: the % may be the effect or the level left
[34] = molecular target: Serine/threonine-protein kinase 33 (Homo sapiens) (UniProt Q9BYT3); assay: Inhibition of human STK33 assessed as enzyme activity at 1 uM relative to control; set-up: scale not given: the % may be the effect or the level left
[35] = molecular target: Serine/threonine-protein kinase Chk2 (Homo sapiens) (UniProt O96017); assay: Inhibition of human CHK2 assessed as enzyme activity at 1 uM relative to control; set-up: scale not given: the % may be the effect or the level left
[36] = molecular target: Serine/threonine-protein kinase 4 (Homo sapiens) (UniProt Q13043); assay: Inhibition of human MST1 assessed as enzyme activity at 1 uM relative to control; set-up: scale not given: the % may be the effect or the level left
[37] = molecular target: Serine/threonine-protein kinase 10 (Homo sapiens) (UniProt O94804); assay: Inhibition of human LOK assessed as enzyme activity at 1 uM relative to control; set-up: scale not given: the % may be the effect or the level left
[38] = molecular target: Vascular endothelial growth factor receptor 2 (Homo sapiens) (UniProt P35968); assay: Inhibition of human KDR assessed as enzyme activity at 1 uM relative to control; set-up: scale not given: the % may be the effect or the level left
Sequence of Vascular endothelial growth factor receptor 2 (Homo sapiens) (P35968 whole entry): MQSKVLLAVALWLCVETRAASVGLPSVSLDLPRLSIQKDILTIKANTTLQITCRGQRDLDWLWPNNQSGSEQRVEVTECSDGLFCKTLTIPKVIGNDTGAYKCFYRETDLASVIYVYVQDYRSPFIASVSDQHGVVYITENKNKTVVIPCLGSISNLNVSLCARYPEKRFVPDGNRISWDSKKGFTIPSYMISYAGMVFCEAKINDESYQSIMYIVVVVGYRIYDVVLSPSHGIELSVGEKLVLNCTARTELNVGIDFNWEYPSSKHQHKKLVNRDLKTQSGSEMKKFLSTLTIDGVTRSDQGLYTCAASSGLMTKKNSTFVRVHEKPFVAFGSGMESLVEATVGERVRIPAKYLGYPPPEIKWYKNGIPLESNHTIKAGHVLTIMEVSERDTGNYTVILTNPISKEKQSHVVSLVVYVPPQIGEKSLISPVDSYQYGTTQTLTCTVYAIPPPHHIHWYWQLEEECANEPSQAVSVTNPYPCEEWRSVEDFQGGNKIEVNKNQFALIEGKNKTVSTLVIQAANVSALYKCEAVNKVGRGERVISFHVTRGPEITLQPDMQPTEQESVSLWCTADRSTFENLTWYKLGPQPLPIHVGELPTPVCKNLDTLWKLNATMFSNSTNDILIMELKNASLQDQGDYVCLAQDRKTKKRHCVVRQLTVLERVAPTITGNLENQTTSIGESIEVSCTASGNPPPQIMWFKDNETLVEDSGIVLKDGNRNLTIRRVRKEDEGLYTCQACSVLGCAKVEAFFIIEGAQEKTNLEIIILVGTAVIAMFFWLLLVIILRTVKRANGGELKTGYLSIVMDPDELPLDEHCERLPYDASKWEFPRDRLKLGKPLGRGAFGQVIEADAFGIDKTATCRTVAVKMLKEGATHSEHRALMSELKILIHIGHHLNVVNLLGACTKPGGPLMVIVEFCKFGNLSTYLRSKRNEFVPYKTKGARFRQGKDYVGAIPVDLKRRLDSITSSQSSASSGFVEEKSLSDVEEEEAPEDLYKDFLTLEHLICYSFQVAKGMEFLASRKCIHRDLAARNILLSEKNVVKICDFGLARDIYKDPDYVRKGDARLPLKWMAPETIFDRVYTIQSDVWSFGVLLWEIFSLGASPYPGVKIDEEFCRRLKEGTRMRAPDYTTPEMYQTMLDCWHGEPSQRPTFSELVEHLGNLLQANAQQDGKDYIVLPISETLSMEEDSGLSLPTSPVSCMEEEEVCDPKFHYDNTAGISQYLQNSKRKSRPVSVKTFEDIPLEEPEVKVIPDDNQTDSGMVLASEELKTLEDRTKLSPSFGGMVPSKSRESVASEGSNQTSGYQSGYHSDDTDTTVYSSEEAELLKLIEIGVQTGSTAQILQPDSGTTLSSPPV

Question: With `CCCS(=O)(=O)Nc1cccc(Nc2ccc3ncn(C)c(=O)c3c2)c1C#N` as the compound, how does the Activity [1] read?
Answer: 106%

Question: What about the inhibition [2] of the same compound?
Answer: < 60%

Question: And the Activity [3]?
Answer: 102%

Question: What about the Activity [4] of the same compound?
Answer: 85%

Question: And the Activity [5]?
Answer: 93%

Question: What about the Activity [6] of the same compound?
Answer: 102%

Question: What about the Activity [7] of the same compound?
Answer: 106%

Question: And the Activity [8]?
Answer: 91.5%

Question: What about the Activity [9] of the same compound?
Answer: 108%

Question: And the Activity [10]?
Answer: 110%

Question: And the Activity [11]?
Answer: 118%

Question: What about the Activity [12] of the same compound?
Answer: 110%

Question: What about the Activity [13] of the same compound?
Answer: 108%

Question: What about the Activity [14] of the same compound?
Answer: 104%

Question: And the Activity [15]?
Answer: 1.5%

Question: What about the Activity [16] of the same compound?
Answer: 102%

Question: What about the Activity [17] of the same compound?
Answer: 101%

Question: What about the Activity [18] of the same compound?
Answer: 112%

Question: And the Activity [19]?
Answer: 102%

Question: And the Activity [20]?
Answer: 110%

Question: And the Activity [21]?
Answer: 117%

Question: And the Activity [22]?
Answer: 97%

Question: And the Activity [23]?
Answer: 104%

Question: What about the Activity [24] of the same compound?
Answer: 104%

Question: What about the Activity [25] of the same compound?
Answer: 119%

Question: And the Activity [26]?
Answer: 120%

Question: What about the Activity [27] of the same compound?
Answer: 99%

Question: What about the Activity [28] of the same compound?
Answer: 100%

Question: And the Activity [29]?
Answer: 115%

Question: What about the Activity [30] of the same compound?
Answer: 102%

Question: What about the Activity [31] of the same compound?
Answer: 112%

Question: And the Activity [32]?
Answer: 106%

Question: And the Activity [33]?
Answer: 103%

Question: And the Activity [34]?
Answer: 91%

Question: And the Activity [35]?
Answer: 100%

Question: What about the Activity [36] of the same compound?
Answer: 108%

Question: And the Activity [37]?
Answer: 40.5%

Question: And the Activity [38]?
Answer: 112%
